How the values were obtained:
Test in all cases: Kinase profiling
Format in all cases: biochemical
[1] = molecular target: T1, MET (Homo sapiens, UniProt P08581); settings: Conc 1000 nM; read-out: Percent inhibition, MET
T1 construct: purchased Ambit (KINOMEscan)
Source text: (§1) ; Fig. 5a; Supplementary Table 1). We focused on Dyrk1a because other kinases inhibited by aminopyrazine compounds were not highly expressed in β-cells and because Dyrk1a was known to inhibit the NFAT pathway that was previously implicated in β-cell proliferation. We used molecular modelling to dock the aminopyrazine compounds into the published structure of Dyrk1a (protein databank accession code 2vx3.pdb; Fig. 5b).

[2] = molecular target: T2, FGFR3 (Homo sapiens, UniProt P22607); settings: Conc 1000 nM; read-out: Percent inhibition, FGFR3
T2 construct: purchased Ambit KINOMEscan
Source text: as §1

[3] = molecular target: T3, TYRO3 (Homo sapiens, UniProt Q06418); settings: Conc 1000 nM; read-out: Percent inhibition, TYRO3
T3 construct: purchased Ambit (KINOMEscan)
Source text: as §1

[4] = molecular target: T4, CK1a (Homo sapiens, UniProt P48729); settings: Conc 1000 nM; read-out: Percent inhibition, CK1a
T4 construct: purchased Ambit KINOMEscan
Source text: as §1

[5] = molecular target: T5, LynA (Homo sapiens, UniProt P07948); settings: Conc 1000 nM; read-out: Percent inhibition, LynA
T5 construct: purchased Ambit (KINOMEscan)
Source text: as §1

[6] = molecular target: T6, Axl (Homo sapiens, UniProt P30530); settings: read-out: Percent inhibition, Axl; for inhibition at 1 µM: Conc 1000 nM
T6 construct: purchased Ambit KINOMEscan
T6 sequence (P30530 26-894): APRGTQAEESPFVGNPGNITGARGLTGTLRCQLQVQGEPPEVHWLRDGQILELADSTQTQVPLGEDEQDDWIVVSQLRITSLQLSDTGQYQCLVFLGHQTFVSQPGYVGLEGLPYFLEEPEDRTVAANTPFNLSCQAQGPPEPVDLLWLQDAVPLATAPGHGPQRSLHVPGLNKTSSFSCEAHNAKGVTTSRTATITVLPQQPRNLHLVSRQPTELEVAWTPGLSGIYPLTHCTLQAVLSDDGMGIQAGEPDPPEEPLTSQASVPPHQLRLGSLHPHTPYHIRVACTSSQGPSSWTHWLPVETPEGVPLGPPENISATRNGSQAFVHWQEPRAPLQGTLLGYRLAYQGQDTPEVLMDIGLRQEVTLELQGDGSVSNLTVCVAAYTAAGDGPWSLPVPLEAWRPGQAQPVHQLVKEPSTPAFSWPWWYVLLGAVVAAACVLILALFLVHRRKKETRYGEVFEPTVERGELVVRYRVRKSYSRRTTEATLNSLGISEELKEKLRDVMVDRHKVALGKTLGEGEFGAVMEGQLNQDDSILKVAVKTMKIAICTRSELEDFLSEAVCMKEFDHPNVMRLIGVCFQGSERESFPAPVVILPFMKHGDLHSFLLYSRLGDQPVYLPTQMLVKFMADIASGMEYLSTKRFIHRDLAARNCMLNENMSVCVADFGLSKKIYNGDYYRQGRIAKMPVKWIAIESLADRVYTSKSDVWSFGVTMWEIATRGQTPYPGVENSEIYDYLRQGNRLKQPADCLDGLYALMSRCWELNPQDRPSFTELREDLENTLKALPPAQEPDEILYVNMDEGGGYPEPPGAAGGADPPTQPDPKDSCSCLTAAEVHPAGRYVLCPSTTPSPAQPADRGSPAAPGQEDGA
Source text: as §1

[7] = molecular target: T7, JNK2 (Homo sapiens, UniProt P45984); settings: Conc 1000 nM; read-out: Percent inhibition, JNK2
T7 construct: purchased Ambit KINOMEscan
Source text: as §1

[8] = molecular target: T8, Flt-3 (Homo sapiens, UniProt P36888); settings: read-out: Percent inhibition, Flt-3; for inhibition at 1 µM: Conc 1000 nM
T8 construct: purchased Ambit KINOMEscan
T8 sequence (P36888 27-993): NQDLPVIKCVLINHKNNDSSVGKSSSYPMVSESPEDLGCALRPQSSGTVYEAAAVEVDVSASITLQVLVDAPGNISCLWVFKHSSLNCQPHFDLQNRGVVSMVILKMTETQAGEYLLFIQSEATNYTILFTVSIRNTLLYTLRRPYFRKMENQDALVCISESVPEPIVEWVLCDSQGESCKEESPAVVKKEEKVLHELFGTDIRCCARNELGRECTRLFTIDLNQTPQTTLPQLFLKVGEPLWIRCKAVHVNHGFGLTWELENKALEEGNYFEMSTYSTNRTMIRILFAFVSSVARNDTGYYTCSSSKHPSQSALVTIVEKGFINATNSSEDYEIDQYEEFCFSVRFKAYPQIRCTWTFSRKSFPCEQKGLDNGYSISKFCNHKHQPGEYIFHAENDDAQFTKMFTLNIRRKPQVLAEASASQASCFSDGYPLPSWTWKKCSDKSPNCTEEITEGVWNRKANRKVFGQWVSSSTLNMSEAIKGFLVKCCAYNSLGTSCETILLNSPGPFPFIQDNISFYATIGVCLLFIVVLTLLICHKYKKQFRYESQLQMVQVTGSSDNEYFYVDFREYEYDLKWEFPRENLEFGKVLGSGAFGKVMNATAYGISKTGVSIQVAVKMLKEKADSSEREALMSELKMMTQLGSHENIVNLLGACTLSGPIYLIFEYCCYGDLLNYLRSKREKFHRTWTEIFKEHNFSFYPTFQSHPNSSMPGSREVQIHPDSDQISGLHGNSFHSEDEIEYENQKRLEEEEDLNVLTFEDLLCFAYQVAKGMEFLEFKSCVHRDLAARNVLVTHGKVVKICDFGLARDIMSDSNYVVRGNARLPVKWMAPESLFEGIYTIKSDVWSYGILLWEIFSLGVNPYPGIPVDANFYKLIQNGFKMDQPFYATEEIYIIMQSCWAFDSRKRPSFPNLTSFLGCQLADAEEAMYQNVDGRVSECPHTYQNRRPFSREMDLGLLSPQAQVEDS
Source text: as §1

[9] = molecular target: T9, NEK2 (Homo sapiens, UniProt P51955); settings: Conc 1000 nM; read-out: Percent inhibition, NEK2
T9 construct: purchased Ambit (KINOMEscan)
Source text: as §1

[10] = molecular target: T10, IGF1R (Homo sapiens, UniProt P08069); settings: Conc 1000 nM; read-out: Percent inhibition, IGF1R
T10 construct: purchased Ambit KINOMEscan
Source text: as §1

[11] = molecular target: T11, AKT3 (Homo sapiens, UniProt Q9Y243); settings: Conc 1000 nM; read-out: Percent inhibition, AKT3
T11 construct: purchased Ambit KINOMEscan
Source text: as §1

[12] = molecular target: T12, FMS (CSF1R) (Homo sapiens, UniProt P07333); settings: Conc 1000 nM; read-out: Percent inhibition, FMS (CSF1R)
T12 construct: purchased Ambit KINOMEscan
Source text: as §1

[13] = molecular target: T13, p70S6K1 (Homo sapiens, UniProt P23443); settings: Conc 1000 nM; read-out: Percent inhibition, p70S6K1
T13 construct: purchased Ambit (KINOMEscan)
Source text: as §1

T7 sequence (P45984 whole entry): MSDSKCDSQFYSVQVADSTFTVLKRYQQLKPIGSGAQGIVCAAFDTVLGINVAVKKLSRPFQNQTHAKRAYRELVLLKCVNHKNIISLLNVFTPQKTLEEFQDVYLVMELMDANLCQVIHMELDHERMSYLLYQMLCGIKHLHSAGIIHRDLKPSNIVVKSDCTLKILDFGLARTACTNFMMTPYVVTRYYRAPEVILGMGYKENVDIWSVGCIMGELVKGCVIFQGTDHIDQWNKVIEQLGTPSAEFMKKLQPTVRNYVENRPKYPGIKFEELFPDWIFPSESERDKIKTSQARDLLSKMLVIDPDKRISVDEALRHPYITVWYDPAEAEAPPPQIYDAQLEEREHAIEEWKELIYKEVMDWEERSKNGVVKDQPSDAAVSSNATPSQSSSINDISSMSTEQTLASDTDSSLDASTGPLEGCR
T3 sequence (Q06418 41-890): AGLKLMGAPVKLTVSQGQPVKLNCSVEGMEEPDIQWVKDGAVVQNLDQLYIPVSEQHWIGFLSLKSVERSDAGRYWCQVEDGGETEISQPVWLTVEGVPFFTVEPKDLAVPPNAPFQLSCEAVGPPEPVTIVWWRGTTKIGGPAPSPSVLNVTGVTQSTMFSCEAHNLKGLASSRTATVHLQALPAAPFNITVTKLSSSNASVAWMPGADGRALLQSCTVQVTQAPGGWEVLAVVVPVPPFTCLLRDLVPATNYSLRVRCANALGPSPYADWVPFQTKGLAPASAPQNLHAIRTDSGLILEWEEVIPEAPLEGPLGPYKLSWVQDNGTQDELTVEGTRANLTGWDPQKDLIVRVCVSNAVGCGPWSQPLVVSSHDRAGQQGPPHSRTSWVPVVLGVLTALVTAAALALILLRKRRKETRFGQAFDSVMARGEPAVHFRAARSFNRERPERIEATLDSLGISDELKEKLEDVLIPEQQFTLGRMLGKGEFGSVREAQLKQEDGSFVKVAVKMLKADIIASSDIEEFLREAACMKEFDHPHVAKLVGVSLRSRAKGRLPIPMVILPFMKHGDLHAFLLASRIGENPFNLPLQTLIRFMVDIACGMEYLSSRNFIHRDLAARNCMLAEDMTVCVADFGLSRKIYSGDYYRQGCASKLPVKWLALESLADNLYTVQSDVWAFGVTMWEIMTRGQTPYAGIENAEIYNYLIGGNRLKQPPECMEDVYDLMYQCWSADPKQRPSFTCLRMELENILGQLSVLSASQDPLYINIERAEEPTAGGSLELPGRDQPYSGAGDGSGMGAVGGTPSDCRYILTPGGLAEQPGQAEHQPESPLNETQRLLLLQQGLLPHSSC
T13 sequence (P23443 whole entry): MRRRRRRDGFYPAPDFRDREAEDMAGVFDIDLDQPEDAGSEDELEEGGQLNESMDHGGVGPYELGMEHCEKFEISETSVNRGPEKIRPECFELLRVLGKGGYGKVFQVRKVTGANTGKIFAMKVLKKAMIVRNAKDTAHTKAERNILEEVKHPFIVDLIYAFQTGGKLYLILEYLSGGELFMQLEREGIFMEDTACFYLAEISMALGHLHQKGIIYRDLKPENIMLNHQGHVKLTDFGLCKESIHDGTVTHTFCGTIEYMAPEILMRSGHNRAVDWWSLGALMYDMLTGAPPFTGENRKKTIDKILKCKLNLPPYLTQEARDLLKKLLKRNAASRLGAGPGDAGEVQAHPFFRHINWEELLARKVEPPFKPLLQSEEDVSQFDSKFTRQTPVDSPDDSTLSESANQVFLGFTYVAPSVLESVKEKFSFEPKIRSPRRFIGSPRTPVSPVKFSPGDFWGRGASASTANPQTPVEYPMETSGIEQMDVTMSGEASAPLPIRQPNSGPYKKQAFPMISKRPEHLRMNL
T5 sequence (P07948 whole entry): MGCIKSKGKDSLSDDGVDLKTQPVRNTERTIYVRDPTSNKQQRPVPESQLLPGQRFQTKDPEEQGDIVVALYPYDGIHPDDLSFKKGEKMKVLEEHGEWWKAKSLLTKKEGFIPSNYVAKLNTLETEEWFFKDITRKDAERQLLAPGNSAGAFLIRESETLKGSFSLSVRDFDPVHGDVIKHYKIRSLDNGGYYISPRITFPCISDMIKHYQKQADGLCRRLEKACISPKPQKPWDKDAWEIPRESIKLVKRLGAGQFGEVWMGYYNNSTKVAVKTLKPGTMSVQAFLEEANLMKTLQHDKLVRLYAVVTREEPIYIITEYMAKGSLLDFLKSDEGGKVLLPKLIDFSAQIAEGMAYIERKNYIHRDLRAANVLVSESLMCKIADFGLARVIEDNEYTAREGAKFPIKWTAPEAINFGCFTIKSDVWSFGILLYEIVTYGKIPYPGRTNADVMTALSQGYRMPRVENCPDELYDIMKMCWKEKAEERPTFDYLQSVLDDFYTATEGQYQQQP
T10 sequence (P08069 31-1367): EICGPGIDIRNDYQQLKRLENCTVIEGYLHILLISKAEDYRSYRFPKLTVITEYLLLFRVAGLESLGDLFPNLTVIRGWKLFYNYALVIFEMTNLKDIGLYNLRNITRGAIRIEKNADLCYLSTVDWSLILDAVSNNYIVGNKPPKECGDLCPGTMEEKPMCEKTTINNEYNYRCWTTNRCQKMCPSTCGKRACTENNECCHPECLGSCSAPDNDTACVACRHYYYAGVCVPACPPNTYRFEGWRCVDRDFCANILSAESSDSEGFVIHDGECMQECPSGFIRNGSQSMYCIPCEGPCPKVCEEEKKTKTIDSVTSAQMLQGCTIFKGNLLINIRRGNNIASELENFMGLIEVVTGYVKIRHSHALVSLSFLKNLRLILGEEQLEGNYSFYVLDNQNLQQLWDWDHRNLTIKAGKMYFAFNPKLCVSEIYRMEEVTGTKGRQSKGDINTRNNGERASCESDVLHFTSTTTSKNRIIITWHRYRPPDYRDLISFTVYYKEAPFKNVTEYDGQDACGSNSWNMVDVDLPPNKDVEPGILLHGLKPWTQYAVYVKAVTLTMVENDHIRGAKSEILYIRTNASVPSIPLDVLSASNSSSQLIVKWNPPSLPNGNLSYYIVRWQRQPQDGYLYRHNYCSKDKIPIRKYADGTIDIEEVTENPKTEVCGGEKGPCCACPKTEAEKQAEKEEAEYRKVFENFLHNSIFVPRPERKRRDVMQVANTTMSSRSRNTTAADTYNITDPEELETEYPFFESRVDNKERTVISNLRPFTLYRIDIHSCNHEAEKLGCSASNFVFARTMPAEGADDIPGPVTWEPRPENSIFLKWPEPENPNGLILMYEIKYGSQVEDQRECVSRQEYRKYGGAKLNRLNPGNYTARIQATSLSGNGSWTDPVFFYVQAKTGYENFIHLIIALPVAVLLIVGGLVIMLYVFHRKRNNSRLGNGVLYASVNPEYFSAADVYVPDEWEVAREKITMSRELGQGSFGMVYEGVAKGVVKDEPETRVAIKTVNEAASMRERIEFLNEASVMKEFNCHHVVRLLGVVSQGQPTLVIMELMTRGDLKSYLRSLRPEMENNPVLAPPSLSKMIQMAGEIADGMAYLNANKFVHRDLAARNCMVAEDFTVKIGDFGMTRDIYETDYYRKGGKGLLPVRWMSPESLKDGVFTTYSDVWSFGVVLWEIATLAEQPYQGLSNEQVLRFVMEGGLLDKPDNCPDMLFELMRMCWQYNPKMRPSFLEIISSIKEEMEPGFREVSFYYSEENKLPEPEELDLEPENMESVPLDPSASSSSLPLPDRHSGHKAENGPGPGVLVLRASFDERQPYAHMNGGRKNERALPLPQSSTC
T2 sequence (P22607 23-806): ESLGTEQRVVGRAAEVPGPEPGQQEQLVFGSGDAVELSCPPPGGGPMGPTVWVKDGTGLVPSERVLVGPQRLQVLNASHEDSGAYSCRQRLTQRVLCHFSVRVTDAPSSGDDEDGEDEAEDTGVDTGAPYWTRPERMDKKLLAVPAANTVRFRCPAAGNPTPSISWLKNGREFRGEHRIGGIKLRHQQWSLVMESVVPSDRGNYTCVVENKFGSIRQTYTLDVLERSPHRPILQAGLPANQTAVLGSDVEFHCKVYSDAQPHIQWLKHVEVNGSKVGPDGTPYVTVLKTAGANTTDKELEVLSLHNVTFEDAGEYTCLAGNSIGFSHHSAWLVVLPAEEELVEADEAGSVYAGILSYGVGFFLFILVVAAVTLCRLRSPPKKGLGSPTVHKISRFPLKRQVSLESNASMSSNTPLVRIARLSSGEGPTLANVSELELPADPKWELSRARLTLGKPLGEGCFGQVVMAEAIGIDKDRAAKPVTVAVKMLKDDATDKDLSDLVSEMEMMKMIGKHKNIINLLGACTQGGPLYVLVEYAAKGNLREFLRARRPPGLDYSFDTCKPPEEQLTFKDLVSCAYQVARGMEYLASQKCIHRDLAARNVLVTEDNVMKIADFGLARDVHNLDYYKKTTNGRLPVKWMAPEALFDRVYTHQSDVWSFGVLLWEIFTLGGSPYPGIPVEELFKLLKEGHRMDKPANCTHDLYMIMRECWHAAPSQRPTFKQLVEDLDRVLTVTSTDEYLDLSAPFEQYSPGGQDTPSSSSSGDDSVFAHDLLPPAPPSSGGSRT
T4 sequence (P48729 whole entry): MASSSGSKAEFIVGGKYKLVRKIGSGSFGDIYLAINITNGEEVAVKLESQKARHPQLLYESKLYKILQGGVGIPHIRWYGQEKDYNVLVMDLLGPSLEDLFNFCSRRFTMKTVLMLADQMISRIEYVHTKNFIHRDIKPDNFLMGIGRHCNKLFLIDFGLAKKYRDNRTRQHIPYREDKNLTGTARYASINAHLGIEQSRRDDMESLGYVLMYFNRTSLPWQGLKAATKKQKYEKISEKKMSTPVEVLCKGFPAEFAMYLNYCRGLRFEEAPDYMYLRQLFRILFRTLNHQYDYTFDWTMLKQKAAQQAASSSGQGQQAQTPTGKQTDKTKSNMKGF

Compound | inhibition at 1 µM [1] | inhibition at 1 µM [2] | inhibition at 1 µM [3] | inhibition at 1 µM [4] | inhibition at 1 µM [5] | inhibition at 0.2 µM ([6]; Conc 200 nM) | inhibition at 1 µM [6] | inhibition at 1 µM [7] | inhibition at 0.2 µM ([8]; Conc 200 nM) | inhibition at 1 µM [8] | inhibition at 1 µM [9] | inhibition at 1 µM [10] | inhibition at 1 µM [11] | inhibition at 1 µM [12] | inhibition at 1 µM [13]
CC(C)Oc1ccc(F)c(-c2cnc(N)c(C(=O)Nc3cnccc3N3CCC[C@@H](C(=O)O)C3)n2)c1 [GNF4877] | 63% | 32% | 46% | 89% | 54% | 74% | 94% | 51% | 36% | 86% | 0% | 49% | 25% | 72% | 75%
Nc1ncc(-c2ccccc2)nc1C(=O)Nc1cnccc1N1CCC(C(=O)O)CC1 [GNF7156] | 47% | 60% | 52% | 42% | 56% | – | 88% | 68% | – | 64% | 3% | 19% | 7% | 78% | 50%

Source: paper PMC4639830, “Inhibition of DYRK1A and GSK3B induces human β-cell proliferation” (Nature Communications, 2015)
